Values of other authors, collected in patent publication US20040234631A1, “Composition comprising soy and use thereof in the provention and/or treatment of various diseases” (priority 2001, published 2004).

Experiments:
blood vessels = conditions: very low concentration
estrogenic effect = conditions: in vitro, reported by Knight

Row | Compound | concentration causing dilation of blood vessels (blood vessels) [nM] | relative estrogenic potency (estradiol = 100) (estrogenic effect)
1 | 1-alkyl-2-acetyl analog of phosphatidyl choline [platelet-activating factor] | 0.1 | –
2 | O=c1c(-c2ccc(O)cc2)coc2cc(O)ccc12 [daidzein] | – | 0.013
